16 compounds from patent US20250122155A1, “NOVEL INDOLE DERIVATIVE, PHARMACEUTICAL COMPOSITION COMPRISING SAME, AND USE THEREOF” (MITOIMMUNE THERAPEUTICS INC., priority 2021, published 2025) can be followed below.

The test system of this assay is H9C2 cells. Description: Protective effect on heart cells against t-BHP (LDH release). Type of assay: cell-based. Conditions: H9C2, t-BHP 400 μM, 2 hours, read-out: EC50 (μM), Cell Protection Effect against t-BHP in Heart Cells. Here is the method: In order to identify the protective effect with regard to heart cells, H9C2 cells were divided into 96-well plates by 1.5×10^4, and cultured for 24 hours. The respective wells were treated with compounds of the examples 3× serial diluted to final concentrations of 30, 10, 3, 1, 0.3, 0.1, 0.03 and 0.01 μM, then incubated for 15 to 20 minutes. After treating with t-BHP with a final concentration of 400 μM, incubation was performed for 2 hours. To confirm the protective effect of each compound, a Cytotoxicity LDH assay kit [Dojindo; CK12] was used to measure the degree of extracellular secretion of LDH. After 2-hour treatment of the cells with t-BHP was completed, 100 μL each of the supernatant in which the cells were placed was collected and moved to a new 96-well plate. 100 μL/well of the assay buffer included in the kit (same amount as the sample) was added, followed by wrapping with foil and reacting for 30 minutes at room temperature. Observing the change of color in the sample, 50 μL/well of stop solution was added, then an iD3 spectrometer was used to measure absorbance at 490 nm and calculate the EC50 values. The EC50 of the compounds of the examples is preferably no more than 1.0 μM, and more preferably no more than 0.3 μM.

Molecules are shown by their SMILES. A value given as a limit tells only on which side of the number the result lay.

`COCCOCc1cc(NC2CCC(O)CC2)c2[nH]c(-c3ccccc3)cc2c1` (single isomer, unassigned) [Example 69-1, 4-((5-((2-methoxyethoxy)methyl)-2-phenyl-1H-indol-7-yl)amino)cyclohexan-1-ol]: the EC50 was at most 0.3 µM.

Regarding `COCCOCc1cc(NC2CCC(O)CC2)c2[nH]c(-c3ccccc3)cc2c1` (single isomer, unassigned) [Example 69-2, 4-((5-((2-methoxyethoxy)methyl)-2-phenyl-1H-indol-7-yl)amino)cyclohexan-1-ol], the EC50 is at most 0.3 µM.

For `COCCOCc1cc(NC2CCC(C)(O)CC2)c2[nH]c(-c3ccccc3)cc2c1` (single isomer, unassigned) [Example 70-1, 4-((5-((2-methoxyethoxy)methyl)-2-phenyl-1H-indol-7-yl)amino)-1-methylcyclohexane-1-ol], the 50% effective concentration (EC50) is at most 0.3 µM.

For `COCCOCc1cc(NC2CCC(C)(O)CC2)c2[nH]c(-c3ccccc3)cc2c1` (single isomer, unassigned) [Example 70-2, 4-((5-((2-methoxyethoxy)methyl)-2-phenyl-1H-indol-7-yl)amino)-1-methylcyclohexane-1-ol], the concentration giving a half-maximal response (EC50) was at most 0.3 µM.

`COCCOCc1cc(N(C2CCCC2)C2CCCC2)c2[nH]c(-c3ccccc3)cc2c1` [Example 3, N,N-dicyclopentyl-5-(2-methoxyethoxymethyl)-2-phenyl-1H-indol-7-amine]: the EC50 was at most 0.3 µM.

As for `COCCOCc1cc(N2CCOCC2)c2[nH]c(-c3ccccc3)cc2c1` [Example 5, 4-[5-(2-methoxyethoxymethyl)-2-phenyl-1H-indol-7-yl]morpholine], the concentration giving a half-maximal response (EC50) is over 1 µM.

As for `COCCOCc1cc(NC2CCOC2)c2[nH]c(-c3ccccc3)cc2c1` (stereo not shown) [Example 6, 5-(2-methoxyethoxymethyl)-2-phenyl-N-tetrahydrofuran-3-yl-1H-indol-7-amine], the EC50 is at most 0.3 µM.

Take `COCCOCc1cc(NC2COC2)c2[nH]c(-c3ccccc3)cc2c1` [Example 7, 5(2-methoxyethoxymethyl)-N-(oxetane-3-yl)-2-phenyl-1H-indol-7-amine]: the EC50 was at most 0.3 µM.

Turning to `COCCOCc1cc(NC2CCC2)c2[nH]c(-c3ccccc3)cc2c1` [Example 8, N-cyclobutyl-5-(2-methoxyethoxymethyl)-2-phenyl-1H-indol-7-amine], the EC50 was at most 0.3 µM.

For the compound `COCCOCc1cc(N(C2CCC2)C2CCC2)c2[nH]c(-c3ccccc3)cc2c1` [Example 9, N,N-dicyclobutyl-5-(2-methoxyethoxymethyl)-2-phenyl-1H-indol-7-amine], the concentration giving a half-maximal response (EC50) was at most 0.3 µM.

Consider `COCCOCc1cc(NC2CCC2)c2c(c1)cc(-c1ccccc1)n2C` [Example 10, N-cyclobutyl-5-(2-methoxyethoxymethyl)-1-methyl-2-phenyl-indol-7-amine], for which the EC50 lay within 0.3 to 1 µM.

Regarding `COCCOCc1cc(NCC(C)(C)C)c2[nH]c(-c3ccccc3)cc2c1` [Example 11, N-(2,2-dimethylpropyl)-5-(2-methoxyethoxymethyl)-2-phenyl-1H-indol-7-amine], the concentration for a half-maximal effect (EC50) was at most 0.3 µM.

As for `COCCOCc1cc(NCC2CCCC2)c2[nH]c(-c3ccccc3)cc2c1` [Example 12, N-(cyclopentylmethyl)-5-(2-methoxyethoxymethyl)-2-phenyl-1H-indol-7-amine], the EC50 is at most 0.3 µM.

As for `COCCOCc1cc(NC2CCCCC2)c2[nH]c(-c3ccccc3)cc2c1` [Example 13, N-cyclohexyl-5-(2-methoxyethoxymethyl)-2-phenyl-1H-indol-7-amine], the EC50 was at most 0.3 µM.

As to `COCCOCc1cc(NC2CCC(F)(F)CC2)c2[nH]c(-c3ccccc3)cc2c1` [Example 14, N-(4,4-difluorocyclohexyl)-5-(2-methoxyethoxymethyl)2-phenyl-1H-indol-7-amine], the EC50 was at most 0.3 µM.

`COCCOCc1cc(NCC(C)C)c2[nH]c(-c3ccccc3)cc2c1` [Example 15, N-isobutyl-5-(2-methoxyethoxymethyl)-2-phenyl-1H-indol-7-amine]: the EC50 was at most 0.3 µM.
